Experimental data reported in the supplement of paper PMC6045584.
± gives the standard deviation of the averaged measurements.

Legend:
[1] = compound: CCN(CC)CCCCNc1ncc2cc(-c3cc(OC)cc(OC)c3)c(NC(=O)NC(C)(C)C)nc2n1; assay: surviving fraction relative to DMSO-only wells; higher = less growth inhibition; conditions: exposure time: 5 days
Outline: (§1)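 Log-phase tumour cell lines were seeded at 250–500 cells per well in 384-well plates. After 24 hours they were exposed continuously for five days to inhibitors at 0.5, 1, 5, 10, 50, 100, 500 and 1000 nM. Viability was read by CellTiter-Glo luminescence after 10 minutes at room temperature, and surviving fraction is luminescence normalised to the median of DMSO-only wells. Each line was screened three times and kept only if replicate Pearson r >0.7 and median Z' >0.3.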

VISMODEGIB = compound: CS(=O)(=O)c1ccc(C(=O)Nc2ccc(Cl)c(-c3ccccn3)c2)c(Cl)c1 [VISMODEGIB]; assay: as above; conditions: exposure time: 5 days
Outline: as §1

Test System | surviving fraction ([1]; 0.5 nM) | surviving fraction ([1]; 1 nM) | surviving fraction ([1]; 5 nM) | surviving fraction ([1]; 10 nM) | surviving fraction ([1]; 50 nM) | surviving fraction ([1]; 100 nM) | surviving fraction ([1]; 500 nM) | surviving fraction ([1]; 1000 nM) | surviving fraction (VISMODEGIB; 0.5 nM) | surviving fraction (VISMODEGIB; 1 nM) | surviving fraction (VISMODEGIB; 5 nM) | surviving fraction (VISMODEGIB; 10 nM) | surviving fraction (VISMODEGIB; 50 nM) | surviving fraction (VISMODEGIB; 100 nM) | surviving fraction (VISMODEGIB; 500 nM) | surviving fraction (VISMODEGIB; 1000 nM)
MDAMB453 BREAST | 0.981 ± 0.029 | 1.03 ± 0.032 | 1.05 ± 0.058 | 1.05 ± 0.043 | 1.03 ± 0.082 | 1.04 ± 0.09 | 1.07 ± 0.033 | 0.814 ± 0.053 | 0.926 ± 0.025 | 0.966 ± 0.03 | 0.951 ± 0.021 | 1.03 ± 0.043 | 0.89 ± 0.047 | 0.954 ± 0.014 | 0.949 ± 0.027 | 0.9893 ± 0.0072
MDAMB468 BREAST | 0.929 ± 0.043 | 0.959 ± 0.06 | 0.996 ± 0.005 | 0.985 ± 0.003 | 0.975 ± 0.055 | 1.1 ± 0.033 | 0.983 ± 0.033 | 0.956 ± 0.021 | 1.02 ± 0.064 | 0.927 ± 0.056 | 0.996 ± 0.058 | 0.957 ± 0.085 | 0.908 ± 0.083 | 1.02 ± 0.076 | 0.944 ± 0.065 | 0.955 ± 0.1
MFM223 BREAST | 1.02 ± 0.04 | 1.1 ± 0.022 | 0.982 ± 0.1 | 0.823 ± 0.089 | 0.361 ± 0.029 | 0.277 ± 0.019 | 0.282 ± 0.026 | 0.258 ± 0.012 | 1.07 ± 0.11 | 1.1 ± 0.021 | 1.05 ± 0.058 | 1.14 ± 0.035 | 0.841 ± 0.08 | 0.875 ± 0.081 | 0.901 ± 0.068 | 0.853 ± 0.063
MG63 BONE | 0.9463 ± 0.0067 | 0.983 ± 0.012 | 0.998 ± 0.013 | 0.965 ± 0.016 | 0.8687 ± 0.0035 | 0.771 ± 0.013 | 0.6363 ± 0.0049 | 0.641 ± 0.016 | 0.925 ± 0.035 | 0.9747 ± 0.0063 | 0.982 ± 0.023 | 0.993 ± 0.026 | 0.983 ± 0.003 | 1.01 ± 0.02 | 0.905 ± 0.007 | 0.966 ± 0.026
MHM BONE | 0.991 ± 0.026 | 0.993 ± 0.014 | 0.982 ± 0.023 | 1.001 ± 0.0095 | 0.964 ± 0.02 | 0.915 ± 0.029 | 0.7063 ± 0.007 | 0.664 ± 0.017 | 0.978 ± 0.04 | 1.018 ± 0.0098 | 1.04 ± 0.035 | 1.02 ± 0.027 | 1.04 ± 0.015 | 1.05 ± 0.017 | 1.04 ± 0.008 | 1.085 ± 0.0059
NCIH441 LUNG | 1 ± 0.052 | 1.04 ± 0.052 | 1 ± 0.022 | 1.01 ± 0.09 | 1.04 ± 0.052 | 1.01 ± 0.059 | 1.02 ± 0.053 | 1.06 ± 0.051 | 0.971 ± 0.018 | 1.02 ± 0.11 | 1.01 ± 0.032 | 1.05 ± 0.036 | 0.971 ± 0.041 | 0.945 ± 0.041 | 0.9667 ± 0.0045 | 1.03 ± 0.086
NOS1 BONE | 1.11 ± 0.046 | 1.19 ± 0.1 | 1.15 ± 0.094 | 1.08 ± 0.056 | 0.989 ± 0.16 | 0.965 ± 0.11 | 0.609 ± 0.046 | 0.37 ± 0.05 | 1.09 ± 0.11 | 1.13 ± 0.13 | 1.1 ± 0.076 | 1.2 ± 0.065 | 0.926 ± 0.088 | 0.958 ± 0.049 | 0.819 ± 0.022 | 0.832 ± 0.04
NY BONE | 0.932 ± 0.031 | 0.942 ± 0.013 | 0.964 ± 0.015 | 1 ± 0.029 | 0.895 ± 0.019 | 0.701 ± 0.015 | 0.337 ± 0.019 | 0.31 ± 0.004 | 0.955 ± 0.018 | 0.968 ± 0.033 | 0.977 ± 0.018 | 1.06 ± 0.027 | 0.993 ± 0.025 | 0.996 ± 0.016 | 0.932 ± 0.058 | 1.01 ± 0.041
OS25HAL BONE | 0.969 ± 0.0072 | 0.983 ± 0.023 | 0.973 ± 0.0036 | 1 ± 0.025 | 1 ± 0.0091 | 1 ± 0.013 | 0.979 ± 0.0085 | 1.03 ± 0.03 | 1 ± 0.014 | 1 ± 0.033 | 0.9983 ± 0.009 | 0.998 ± 0.017 | 0.967 ± 0.019 | 0.98 ± 0.005 | 1.01 ± 0.048 | 1.02 ± 0.054
OSHN BONE | 1 ± 0.016 | 1.01 ± 0.017 | 1.01 ± 0.024 | 1.03 ± 0.033 | 0.993 ± 0.023 | 1.01 ± 0.033 | 1.02 ± 0.035 | 1.04 ± 0.042 | 1.01 ± 0.022 | 1.03 ± 0.019 | 1.05 ± 0.013 | 1.059 ± 0.0084 | 0.955 ± 0.021 | 0.991 ± 0.024 | 0.963 ± 0.031 | 0.989 ± 0.025
